Measurements reported in the NIST ThermoML archive (doi:10.1016/j.fluid.2008.03.004).

Test: xn = mol fraction of the nth substance listed
Settings: 101 kPa, Liquid; for speed of sound: Sing-around technique in a fixed-path interferometer

COC(C)(C)C [2-methoxy-2-methylpropane] + Cc1ccc(C)cc1
Settings	mass density [kg/m3]	speed of sound [m/s]
288.15 K, x1 = 0.051	859.904	1337.8
288.15 K, x1 = 0.111	853.391	1325
288.15 K, x1 = 0.199	843.55	1302.9
288.15 K, x1 = 0.297	832.629	1278.6
288.15 K, x1 = 0.394	821.398	1253
288.15 K, x1 = 0.5	808.782	1223.9
288.15 K, x1 = 0.591	797.744	1199.5
288.15 K, x1 = 0.7	784.294	1169.8
288.15 K, x1 = 0.799	771.481	1140.7
288.15 K, x1 = 0.898	758.534	1112.1
288.15 K, x1 = 0.949	751.828	1096.4
288.15 K, x1 = 1	744.861	1083.4
290.65 K, x1 = 0.051	857.719	1327.2
290.65 K, x1 = 0.111	851.187	1314.2
290.65 K, x1 = 0.199	841.317	1292.2
290.65 K, x1 = 0.297	830.36	1267.7
290.65 K, x1 = 0.394	819.092	1242
290.65 K, x1 = 0.5	806.435	1212.8
290.65 K, x1 = 0.591	795.358	1188.4
290.65 K, x1 = 0.7	781.856	1158.4
290.65 K, x1 = 0.799	768.993	1129.2
290.65 K, x1 = 0.898	755.997	1100.5
290.65 K, x1 = 0.949	749.262	1084.7
290.65 K, x1 = 1	742.259	1071.6
293.15 K, x1 = 0.051	855.534	1316.8
293.15 K, x1 = 0.111	848.983	1303.7
293.15 K, x1 = 0.199	839.08	1281.6
293.15 K, x1 = 0.297	828.088	1257
293.15 K, x1 = 0.394	816.783	1231.1
293.15 K, x1 = 0.5	804.082	1201.9
293.15 K, x1 = 0.591	792.963	1177.3
293.15 K, x1 = 0.7	779.412	1147.2
293.15 K, x1 = 0.799	766.5	1117.9
293.15 K, x1 = 0.898	753.452	1089
293.15 K, x1 = 0.949	746.689	1073.2
293.15 K, x1 = 1	739.654	1060
295.65 K, x1 = 0.051	853.348	1306.5
295.65 K, x1 = 0.111	846.775	1293.1
295.65 K, x1 = 0.199	836.841	1271
295.65 K, x1 = 0.297	825.813	1246.2
295.65 K, x1 = 0.394	814.47	1220.2
295.65 K, x1 = 0.5	801.723	1191
295.65 K, x1 = 0.591	790.564	1166.2
295.65 K, x1 = 0.7	776.96	1135.9
295.65 K, x1 = 0.799	763.998	1106.6
295.65 K, x1 = 0.898	750.898	1077.5
295.65 K, x1 = 0.949	744.102	1061.7
295.65 K, x1 = 1	737.036	1048.5
298.15 K, x1 = 0.051	851.161	1296.3
298.15 K, x1 = 0.111	844.568	1282.7
298.15 K, x1 = 0.199	834.598	1260.5
298.15 K, x1 = 0.297	823.534	1235.5
298.15 K, x1 = 0.394	812.151	1209.4
298.15 K, x1 = 0.5	799.359	1180.1
298.15 K, x1 = 0.591	788.159	1155.2
298.15 K, x1 = 0.7	774.504	1124.7
298.15 K, x1 = 0.799	761.487	1095.3
298.15 K, x1 = 0.898	748.333	1066
298.15 K, x1 = 0.949	741.507	1050.2
298.15 K, x1 = 1	734.406	1036.9
300.65 K, x1 = 0.051	848.97	1286.1
300.65 K, x1 = 0.111	842.356	1272.2
300.65 K, x1 = 0.199	832.351	1249.9
300.65 K, x1 = 0.297	821.251	1224.8
300.65 K, x1 = 0.394	809.83	1198.7
300.65 K, x1 = 0.5	796.99	1169.2
300.65 K, x1 = 0.591	785.75	1144.2
300.65 K, x1 = 0.7	772.04	1113.5
300.65 K, x1 = 0.799	758.97	1084
300.65 K, x1 = 0.898	745.759	1054.6
300.65 K, x1 = 0.949	738.9	1038.8
300.65 K, x1 = 1	731.766	1025.4
303.15 K, x1 = 0.051	846.775	1275.9
303.15 K, x1 = 0.111	840.14	1261.8
303.15 K, x1 = 0.199	830.102	1239.4
303.15 K, x1 = 0.297	818.963	1214.2
303.15 K, x1 = 0.394	807.503	1187.9
303.15 K, x1 = 0.5	794.615	1158.4
303.15 K, x1 = 0.591	783.333	1133.2
303.15 K, x1 = 0.7	769.567	1102.4
303.15 K, x1 = 0.799	756.446	1072.8
303.15 K, x1 = 0.898	743.176	1043.3
303.15 K, x1 = 0.949	736.284	1027.4
303.15 K, x1 = 1	729.112	1013.9
305.65 K, x1 = 0.051	844.579	1265.7
305.65 K, x1 = 0.111	837.921	1251.5
305.65 K, x1 = 0.199	827.849	1228.9
305.65 K, x1 = 0.297	816.672	1203.5
305.65 K, x1 = 0.394	805.171	1177.3
305.65 K, x1 = 0.5	792.236	1147.6
305.65 K, x1 = 0.591	780.907	1122.3
305.65 K, x1 = 0.7	767.085	1091.3
305.65 K, x1 = 0.799	753.909	1061.6
305.65 K, x1 = 0.898	740.58	1031.9
305.65 K, x1 = 0.949	733.654	1016
305.65 K, x1 = 1	726.444	1002.4
308.15 K, x1 = 0.051	842.382	1255.6
308.15 K, x1 = 0.111	835.701	1241.2
308.15 K, x1 = 0.199	825.592	1218.5
308.15 K, x1 = 0.297	814.375	1193
308.15 K, x1 = 0.394	802.832	1166.6
308.15 K, x1 = 0.5	789.848	1136.9
308.15 K, x1 = 0.591	778.473	1111.4
308.15 K, x1 = 0.7	764.594	1080.2
308.15 K, x1 = 0.799	751.361	1050.5
308.15 K, x1 = 0.898	737.971	1020.6
308.15 K, x1 = 0.949	731.009	1004.7
308.15 K, x1 = 1	723.763	990.99
310.65 K, x1 = 0.051	840.182	1245.6
310.65 K, x1 = 0.111	833.476	1230.9
310.65 K, x1 = 0.199	823.333	1208.2
310.65 K, x1 = 0.297	812.074	1182.6
310.65 K, x1 = 0.394	800.49	1156.1
310.65 K, x1 = 0.5	787.456	1126.2
310.65 K, x1 = 0.591	776.037	1100.6
310.65 K, x1 = 0.7	762.097	1069.3
310.65 K, x1 = 0.799	748.806	1039.4
310.65 K, x1 = 0.898	735.351	1009.4
310.65 K, x1 = 0.949	728.354	993.41
310.65 K, x1 = 1	721.069	979.62
313.15 K, x1 = 0.051	837.972	1235.6
313.15 K, x1 = 0.111	831.247	1220.7
313.15 K, x1 = 0.199	821.068	1197.8
313.15 K, x1 = 0.297	809.766	1172.2
313.15 K, x1 = 0.394	798.142	1145.5
313.15 K, x1 = 0.5	785.055	1115.5
313.15 K, x1 = 0.591	773.588	1089.9
313.15 K, x1 = 0.7	759.588	1058.4
313.15 K, x1 = 0.799	746.238	1028.3
313.15 K, x1 = 0.898	732.717	998.27
313.15 K, x1 = 0.949	725.685	982.13
313.15 K, x1 = 1	718.357	968.16
315.65 K, x1 = 0.051	835.765	1225.6
315.65 K, x1 = 0.111	829.014	1210.5
315.65 K, x1 = 0.199	818.798	1187.5
315.65 K, x1 = 0.297	807.454	1161.8
315.65 K, x1 = 0.394	795.788	1135
315.65 K, x1 = 0.5	782.649	1104.9
315.65 K, x1 = 0.591	771.132	1079.1
315.65 K, x1 = 0.7	757.069	1047.5
315.65 K, x1 = 0.799	743.66	1017.3
315.65 K, x1 = 0.898	730.073	987.1
315.65 K, x1 = 0.949	723.003	970.91
315.65 K, x1 = 1	715.636	956.8
318.15 K, x1 = 0.051	833.554	1215.7
318.15 K, x1 = 0.111	826.778	1200.4
318.15 K, x1 = 0.199	816.524	1177.3
318.15 K, x1 = 0.297	805.138	1151.5
318.15 K, x1 = 0.394	793.428	1124.6
318.15 K, x1 = 0.5	780.236	1094.3
318.15 K, x1 = 0.591	768.668	1068.5
318.15 K, x1 = 0.7	754.544	1036.7
318.15 K, x1 = 0.799	741.073	1006.4
318.15 K, x1 = 0.898	727.417	976.02
318.15 K, x1 = 0.949	720.308	959.76
318.15 K, x1 = 1	712.897	945.54
320.65 K, x1 = 0.051	831.342	1205.8
320.65 K, x1 = 0.111	824.54	1190.3
320.65 K, x1 = 0.199	814.248	1167.1
320.65 K, x1 = 0.297	802.819	1141.1
320.65 K, x1 = 0.394	791.063	1114.2
320.65 K, x1 = 0.5	777.817	1083.8
320.65 K, x1 = 0.591	766.199	1057.9
320.65 K, x1 = 0.7	752.007	1025.9
320.65 K, x1 = 0.799	738.474	995.49
320.65 K, x1 = 0.898	724.747	964.93
320.65 K, x1 = 0.949	717.599	948.61
320.65 K, x1 = 1	710.141	934.24
323.15 K, x1 = 0.051	829.134	1196
323.15 K, x1 = 0.111	822.307	1180.4
323.15 K, x1 = 0.199	811.976	1157.1
323.15 K, x1 = 0.297	800.501	1131
323.15 K, x1 = 0.394	788.703	1103.9
323.15 K, x1 = 0.5	775.403	1073.3
323.15 K, x1 = 0.591	763.728	1047.4
323.15 K, x1 = 0.7	749.471	1015.2
323.15 K, x1 = 0.799	735.877	984.7
323.15 K, x1 = 0.898	722.077	954
323.15 K, x1 = 0.949	714.887	937.58
323.15 K, x1 = 1	707.381	922.97
